Source: US20230203031A1, “COMPOUNDS USEFUL FOR INHIBITING CDK7” (Eli Lilly and Company, priority 2020, published 2023)
Where two headings read alike, the source gives them in different places.

Tests used:
[1] = system: pCTD Ser5 in HCT116 cells; assay: Phospho-carboxyl terminal domain (Ser5) p-CTD (S5) cell based Acumen assay; details: read-out: Relative IC50 for pCTD Ser5
Experimental: HCT116 cells (ATCC CCL-247) are cultured in McCoy’s 5A Medium Modified media supplemented with 10% FBS, 1% NaPyr, and 1% Pen/Strep and plated (prior to becoming 70% confluent) in 96-well flat-bottom plates at a density of 5,000 cells per well in 100 µL volume. The cells are incubated overnight in a cell culture incubator (5% CO2, 95% Relative Humidity (RH), and 37° C.) and allowed to attach to the plate. The following morning, the cells are dosed with compounds. Compound inhibitors are solubilized at 60 µM in culture medium containing 0.6% DMSO. Subsequently compound serial dilutions (1:3) are prepared over a 60 µM to 0.003 µM range. Cells are dosed with the addition of 50 µL from serial dilution plate to assay plate containing cell attached with 100 µL of media producing a final DMSO concentration of 0.2% with a final compound concentration dose range between 20 and 0.001 µM. For max point media containing 0.2% of DMSO is used and for min point, a reference compound diluted at 0.83 µM final concentration in the growth media containing 0.2% DMSO is used. After dosing with compounds, the cell plates are incubated at 37° C. and 5% CO2 for 4 hours. Growth media is removed carefully and the cells are fixed by adding 100 µL of 4% para-formaldehyde for 30 minutes at RT. Cell are washed once with PBS and incubated with 100 µL of cold MeOH for 15 minutes at RT for cell permeation. Again cells are washed twice with PBS (100 µL/each) and blocked with 100 µL/well of 1% BSA/PBS for 30 min at RT. 50 µL of 1:1000 primary antibody (Anti-phosphoCTD Ser5 Bethyl Laboratories cat# A300-655A) dilution in 1% BSA/PBS are added per well, the plates are sealed and incubated overnight at 4° C.
The following day cells are washed three times with PBS (100 µL/well) and incubated with 50 µL/well of secondary antibody (1:2000 dilution, Goat anti-rabbit IgM ALEXA FLUOR™ 488) in PBS for 1 hourr at room temperature. After washing 3× with PBS (100 µL/well), 100 µL, of 50 µg/mL RNAase (Sigma) and 1:1000 propidium iodide dilution in PBS are added per well. Plates are sealed and incubated for 1 hour at RT on the bench (preserved from light). Plates are analyzed on Acumen on FL2 (mean intensity), and FL3 (total intensity). Fluorescence plates are scanned with ACUMEN EXPLORER™ [Laser-scanning fluorescence microplate cytometer manufactured by TTP LABTECH LTD] to measure anti-phospho-carboxyl terminal domain at Serine 5 (pCTD). Image analysis is based on cellular fluorescent signals for identifying positive cells. pCTD (S5) positive cells are identified by mean intensity at 500-530 above the threshold. Total intensity at 575-640 from propidium iodide/DNA is used to identify individual cells. Assay output is % pCTD positive cells. The IC50 is determined by curve fitting to a four parameter logistic for each output using GENE DATA™.

[2] = system: HCC1806 xenograft tumor model; assay: Xenograft tumor model; type: in vivo, female athymic nude mice; details: QDx28, HCC1806 (KMT2C)
Experimental: The purpose of this assay is to measure reduction in tumor volume in response to the compound of Example 1. To evaluate in vivo efficacy of a test compound, multiple xenograft tumor models are utilized. Briefly, 2.5 × 10^6 tumor cells in a 1:1 MATRIGEL® mix (0.2 mL total volume) are injected subcutaneously into the female athymic nude mice (Envigo, Harlan Laboratories). After allowing tumors to reach a desired size of ~300-500 mm^3, animals are randomized into groups of 5 for efficacy studies. Test compound is administered via oral gavage (PO) at indicated doses and regimens. Tumor growth and body weight are monitored over time to evaluate efficacy and signs of toxicity.
Test compound is formulated in 1% hydroxyethylcellulose, 0.25% polysorbate 80, 0.05% antifoam in purified water (HEC) and administered by oral gavage (final volume 0.2 mL) at the doses indicated in Table 2. A test compound is formulated on a weekly basis and stored at 4° C. Vehicles are administered to the control groups according the schedules used above using a volume of 0.2 mL per dose. Mice are dosed via oral gavage and tumor samples are collected at termination and stored at -80° C.
Tumor size and body weight are recorded and analyzed bi-weekly.
Delta T/C% is calculated when the endpoint tumor volume in a treated group is at or above baseline tumor volume. The formula is 100×(T-T0)/(C-C0). […]

CDK7 = biological target: T1, CDK7 (Homo sapiens, UniProt P50613); assay: DiscoverX KINOMEscan competition binding, CDK7; details: 0.2 µM compound
T1 construct: purchased DiscoverX Corporation (KINOMEscan service)
Experimental: The purpose of the study is to generate an in vitro selectivity profile of the compounds of Example 8. To address selectivity, the compound of Example 8 is tested in a panel of 468 human kinases at DiscoverX Corporation using the KINOMEscan™ screening platform. KINOMEscan™ employs a novel and proprietary active site-directed competition binding assay to quantitatively measure interactions between test compounds and more than 450 human kinases and disease relevant mutant variants.
Compounds that bind the kinase active site and directly (sterically) or indirectly (allosterically) prevent kinase binding to an immobilized ligand, will reduce the amount of kinase captured on the solid support. […] Compound activity is monitored by measuring the amount of kinase captured in test versus control samples by using a qPCR method that detects the associated DNA label. Further information regarding the DiscoverX Corporation KINOMEscan™ screening platform can be found at http://www.discoverx.com.
Assays to monitor binding to a 468 kinase panel were conducted at DiscoverXⓇ Corporation (Fremont, CA). Example 8 is tested at 20 µM, 2 µM, and 0.2 µM final concentrations. Kinases are tagged with DNA for qPCR detection. […] The kinase concentration in the eluates is measured by qPCR. […]

T1 sequence (P50613 whole entry): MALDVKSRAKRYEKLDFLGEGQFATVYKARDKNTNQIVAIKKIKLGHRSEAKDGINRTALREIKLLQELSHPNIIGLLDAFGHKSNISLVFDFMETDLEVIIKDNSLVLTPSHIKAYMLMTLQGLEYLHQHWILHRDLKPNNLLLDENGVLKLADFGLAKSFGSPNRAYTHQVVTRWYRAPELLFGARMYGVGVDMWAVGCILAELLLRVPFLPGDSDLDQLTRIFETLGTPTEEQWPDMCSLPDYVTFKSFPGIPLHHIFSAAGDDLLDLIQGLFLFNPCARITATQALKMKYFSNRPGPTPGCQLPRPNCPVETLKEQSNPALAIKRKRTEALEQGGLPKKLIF

Row | IC50 ([1]; 4 hours) [nM] | IC50 ([1]; Homo sapiens, HCT-116, 4 h) [nM] | Compound | also measured
1 | 118 |  | C=CC(=O)N1CCO[C@H](CN2CCC(Nc3cc(C(C)O)cn4c(C(C)C)cnc34)CC2)C1 (single isomer, unassigned) [Example 5] | 
2 | 55.1 |  | C=CC(=O)N1CCO[C@H](CN2CCC(Nc3cc(C(C)O)cn4c(C(C)C)cnc34)CC2)C1 (single isomer, unassigned) [Example 4] | 
3 |  | 71.7 | [2H]CC([2H])(C)c1cnc2c(NC3CCN(C[C@@H]4CN(C(=O)C=C)CCO4)CC3)cc(C(F)(F)F)cn12 (mixture of isomers) [Example 7, 1-[(2R)-2-[[4-[[3-[rac-1,2-dideuterio-1-methyl-ethyl]-6-(trifluoromethyl)imidazo[1,2-a]pyridin-8-yl]amino]-1-piperidyl]methyl]morpholin-4-yl]prop-2-en-1-one] | 
4 |  | 15.9 | [2H]C([2H])=C([2H])C(=O)N1CCO[C@H](CN2CCC(Nc3cc(C(F)(F)F)cn4c(C(C)C)cnc34)CC2)C1 [Example 6, 2,3,3-trideuterio-1-[(2R)-2-[[4-[[3-isopropyl-6-(trifluoromethyl)imidazo[1,2-a]pyridin-8-yl]amino]-1-piperidyl]methyl]morpholin-4-yl]prop-2-en-1-one] | 

More lines, now with the values behind:

Row | Compound | IC50 ([1]; 4 hours) [nM] | IC50 ([1]; Homo sapiens, HCT-116, 4 h) [nM] | also measured
5 | C=CC(=O)N1CCO[C@H](CN2CCC(Nc3cc(C(C)F)cn4c(C(C)C)cnc34)CC2)C1 (single isomer, unassigned) [Example 1] |  | 161 | Avg. ΔT/C ([2]; 10 mg/kg PO): 16.5%; Avg. ΔT/C ([2]; 20 mg/kg PO): -38.0%
6 | C=CC(=O)N1CCO[C@H](CN2CCC(Nc3cc(C(C)F)cn4c(C(C)C)cnc34)CC2)C1 (single isomer, unassigned) [Example 2] | 162 |  | 
7 | C=CC(=O)N1CCO[C@H](CN2CCC(Nc3cc(C(F)(F)F)cn4c(C(C)C)cnc34)CC2)C1 [Example 8, 1-[(2R)-2-[[4-[[3-isopropyl-6-(trifluoromethyl)imidazo[1,2-a]pyridin-8-yl]amino]-1-piperidyl]methyl]morpholin-4-yl]prop-2-en-1-one] |  | 26.2 | remaining binding at 0.2 µM (CDK7; read-out: % control activity against CDK7): ~4%; inhibition at 0.2 µM (CDK7; read-out: inhibition against CDK7): ~96%
